Source: US11788092B2, “Recombinant microorganisms and uses therefor” (LanzaTech, Inc., priority 2021, dated 2023)
≈ marks a conversion by molar mass, not a printed value.

Columns and labels:
[1] = system: C. autoethanogenum strain with aldehyde::ferredoxin oxidoreductase (AOR) enzymes deleted; assay: 3-HP challenge experiment, autotrophic growth in Schott bottles; type: cell-based, Clostridium autoethanogenum
Method: FIGS. 2A-2B show autotrophic growth of Clostridium autoethanogenum Δaor strain in the presence of different amounts of 3-hydroxypropionic acid (at 0, 0.2, 0.5, 1, 2, 5 and 10 g/L) in Schott bottles. FIG. 2A: Growth profile; FIG. 2B: Peak Biomass. Unc=Unchallenged; N=2; Error bar=S.D.
To study the toxicity of 3-HP on autotrophic growth of C. autoethanogenum, a 3-HP challenge experiment (at 0, 0.2, 0.5, 1, 2, 5 and 10 g/L) was conducted in Schott bottles with synthetic gas blend (50% CO, 10% H2, 30% CO2 and 10% N2) using a strain with aldehyde::ferredoxin oxidoreductase (AOR) enzymes deleted (FIG. 2). […] Unc=Unchallenged; N=2; Error bar=S.D.

Synechococcus elongatus = settings: Begemann et al. 2013; cited from earlier work

With O=C(O)CCO [Strain 3-HP, 3-Hydroxypropionate] the “effect on growth rate” value ([1]; 5 g/L 3-HP) was “reduced the growth rate”, the “reduction of peak OD600 nm vs unchallenged culture” value ([1]; 5 g/L 3-HP, synthetic gas blend 50% CO, 10% H2, 30% CO2, 10% N2, N=2) was 22% and the “effect on growth rate” value ([1]; 10 g/L 3-HP) was “more pronounced decrease in growth rate”. For the same compound, the “decrease in peak OD600 nm vs unchallenged culture” value ([1]; 10 g/L 3-HP, synthetic gas blend 50% CO, 10% H2, 30% CO2, 10% N2, N=2) was 40% and the minimal inhibitory concentration (Synechococcus elongatus) was 180 µg/mL (≈ 2000 µM).
